From US20080182822A1, “Liquid Pharmaceutical Compositions Comprising a Bisphosphonate Compound” (Besins Healthcare SA, priority 2006, published 2008)
Several values for one entry are separate records, joined by “and”; a condition that tells them apart may be missing. Equal entries are not always repeated. Where two headings read alike, the source gives them in different places.

Details: rat; for Faeces Excretion, Amount Excreted (% of Dose), 8 hours / Urinary Excretion, Amount Excreted (% of Dose), 8 hours: collection 0-8 hours; for Faeces Excretion, Amount Excreted (% of Dose), 72 hours / Urinary Excretion, Amount Excreted (% of Dose), 72 hours: collection 48-72 hours; for Faeces Excretion, Amount Excreted (% of Dose), 96 hours / Urinary Excretion, Amount Excreted (% of Dose), 96 hours: collection 72-96 hours; for Faeces Excretion, Amount Excreted (% of Dose), 120 hours / Urinary Excretion, Amount Excreted (% of Dose), 120 hours: collection 96-120 hours; for Faeces Excretion, Amount Excreted (% of Dose), 144 hours / Urinary Excretion, Amount Excreted (% of Dose), 144 hours: collection 120-144 hours; for Faeces Excretion, Amount Excreted (% of Dose), 168 hours / Urinary Excretion, Amount Excreted (% of Dose), 168 hours: collection 144-168 hours; for Recovery from Treated Skin, % of Dose: dermal (Group 2)
[1] = dermal 1.9 mg (Group 2), individual animals
[2] = dermal 1.9 mg (Group 2), collection 8-24 hours, individual animals
[3] = dermal 1.9 mg (Group 2), collection 24-48 hours, individual animals
[4] = dermal 1.9 mg (Group 2), necropsy Day 4, Mean
[5] = dermal 1.9 mg (Group 2), necropsy Day 4, individual animals
[6] = dermal 1.9 mg (Group 2), necropsy Day 8, Mean
[7] = dermal 1.9 mg (Group 2), necropsy Day 8, individual animals

Compound: NCCCC(O)(P(=O)(O)O)P(=O)(O)O [14C-alendronate]
- Faeces Excretion, Total Excretion (% of Dose), 0-168 hours (dermal 1.9 mg (Group 2), Mean): approximately 2 % of Dose
- Urinary Excretion, Total Excretion (% of Dose), 0-72 hours (dermal 1.9 mg (Group 2), Mean): 0.40% of Dose
- Faeces Excretion, Amount Excreted (% of Dose), 8 hours (dermal 1.9 mg (Group 2), Mean): 0.004% of Dose
- Urinary Excretion, Amount Excreted (% of Dose), 8 hours (dermal 1.9 mg (Group 2), Mean): 0.17% of Dose
- Faeces Excretion, Amount Excreted (% of Dose), 8 hours [1]: 0.004% of Dose (2×) and 0.000% of Dose (2×) and 0.001% of Dose (2×) and 0.014% of Dose and 0.003% of Dose
- Urinary Excretion, Amount Excreted (% of Dose), 8 hours [1]: 0.15% of Dose and 0.02% of Dose and 0.05% of Dose and 0.08% of Dose (2×) and 0.22% of Dose and 0.14% of Dose and 0.09% of Dose and 0.83% of Dose and 0.07% of Dose
- Urinary Excretion, Amount Excreted (% of Dose), 24 hours (dermal 1.9 mg (Group 2), collection 8-24 hours, Mean): 0.12% of Dose
- Faeces Excretion, Amount Excreted (% of Dose), 24 hours [2]: 0.047% of Dose and 0.001% of Dose and 0.066% of Dose
- Urinary Excretion, Amount Excreted (% of Dose), 24 hours [2]: 0.07% of Dose (3×) and 0.06% of Dose (2×) and 0.05% of Dose and 0.27% of Dose and 0.33% of Dose and 0.16% of Dose and 0.11% of Dose
- Urinary Excretion, Amount Excreted (% of Dose), 48 hours (dermal 1.9 mg (Group 2), collection 24-48 hours, Mean): 0.06% of Dose
- Faeces Excretion, Amount Excreted (% of Dose), 48 hours [3]: 0.68% of Dose and 0.30% of Dose and 0.58% of Dose and 0.60% of Dose and 0.53% of Dose and 0.52% of Dose
- Urinary Excretion, Amount Excreted (% of Dose), 48 hours [3]: 0.06% of Dose (5×) and 0.02% of Dose (2×) and 0.14% of Dose and 0.12% of Dose and 0.03% of Dose
- Faeces Excretion, Amount Excreted (% of Dose), 72 hours (dermal 1.9 mg (Group 2), Mean): 0.16% of Dose
- Urinary Excretion, Amount Excreted (% of Dose), 72 hours (dermal 1.9 mg (Group 2), Mean): 0.04% of Dose
- Faeces Excretion, Amount Excreted (% of Dose), 72 hours [1]: 0.33% of Dose and 0.19% of Dose and 0.15% of Dose and 0.10% of Dose and 0.46% of Dose and 0.17% of Dose and 0.05% of Dose and 0.02% of Dose (2×)
- Urinary Excretion, Amount Excreted (% of Dose), 72 hours [1]: 0.06% of Dose (2×) and 0.02% of Dose (3×) and 0.03% of Dose (2×) and 0.01% of Dose (2×) and 0.13% of Dose
- Faeces Excretion, Amount Excreted (% of Dose), 96 hours (dermal 1.9 mg (Group 2), Mean): 0.10% of Dose
- Urinary Excretion, Amount Excreted (% of Dose), 96 hours (dermal 1.9 mg (Group 2), Mean): 0.03% of Dose
- Faeces Excretion, Amount Excreted (% of Dose), 96 hours [1]: 0.13% of Dose and 0.05% of Dose (2×) and 0.09% of Dose and 0.18% of Dose
- Urinary Excretion, Amount Excreted (% of Dose), 96 hours [1]: 0.05% of Dose and 0.03% of Dose (2×) and 0.02% of Dose and 0.01% of Dose
- Faeces Excretion, Amount Excreted (% of Dose), 120 hours (dermal 1.9 mg (Group 2), Mean): 0.07% of Dose
- Urinary Excretion, Amount Excreted (% of Dose), 120 hours (dermal 1.9 mg (Group 2), Mean): 0.02% of Dose
- Faeces Excretion, Amount Excreted (% of Dose), 120 hours [1]: 0.13% of Dose and 0.05% of Dose (2×) and 0.02% of Dose and 0.10% of Dose
- Urinary Excretion, Amount Excreted (% of Dose), 120 hours [1]: 0.06% of Dose and 0.02% of Dose (2×) and 0.01% of Dose (2×)
- Faeces Excretion, Amount Excreted (% of Dose), 144 hours (dermal 1.9 mg (Group 2), Mean): 0.05% of Dose
- Urinary Excretion, Amount Excreted (% of Dose), 144 hours (dermal 1.9 mg (Group 2), Mean): 0.01% of Dose
- Faeces Excretion, Amount Excreted (% of Dose), 144 hours [1]: 0.07% of Dose and 0.04% of Dose (2×) and 0.03% of Dose and 0.09% of Dose
- Urinary Excretion, Amount Excreted (% of Dose), 144 hours [1]: 0.02% of Dose and 0.01% of Dose (4×)
- Faeces Excretion, Amount Excreted (% of Dose), 168 hours (dermal 1.9 mg (Group 2), Mean): 0.00% of Dose
- Urinary Excretion, Amount Excreted (% of Dose), 168 hours (dermal 1.9 mg (Group 2), Mean): 0.00% of Dose
- Faeces Excretion, Amount Excreted (% of Dose), 168 hours [1]: 0.01% of Dose (3×) and 0.00% of Dose (2×)
- Urinary Excretion, Amount Excreted (% of Dose), 168 hours [1]: 0.01% of Dose and 0.00% of Dose (4×)
- Faeces Excretion, Total Excretion (% of Dose), 0-72 hours [1]: 0.53% of Dose and 0.88% of Dose and 0.59% of Dose
- Faeces Excretion, Total Excretion (% of Dose), 0-168 hours [1]: 0.66% of Dose
- Urinary Excretion, Total Excretion (% of Dose), 0-72 hours [1]: 0.34% of Dose and 0.16% of Dose and 0.20% of Dose and 0.17% of Dose and 0.57% of Dose and 0.74% of Dose and 0.21% of Dose and 0.23% of Dose and 0.22% of Dose
- Concentration in bone, Femur [4]: 0.060 μg 14C-alendronate/g bone
- Concentration in bone, Tibia [4]: 0.039 μg 14C-alendronate/g bone
- Concentration in bone, Femur [5]: 0.222 μg 14C-alendronate/g bone and 0.018 μg 14C-alendronate/g bone (2×) and 0.015 μg 14C-alendronate/g bone and 0.026 μg 14C-alendronate/g bone
- Concentration in bone, Tibia [5]: 0.130 μg 14C-alendronate/g bone and 0.039 μg 14C-alendronate/g bone and 0.016 μg 14C-alendronate/g bone and 0.002 μg 14C-alendronate/g bone and 0.011 μg 14C-alendronate/g bone
- Concentration in bone, Femur [6]: 0.029 μg 14C-alendronate/g bone
- Concentration in bone, Tibia [6]: 0.017 μg 14C-alendronate/g bone
- Concentration in bone, Femur [7]: 0.022 μg 14C-alendronate/g bone and 0.016 μg 14C-alendronate/g bone and 0.011 μg 14C-alendronate/g bone and 0.069 μg 14C-alendronate/g bone
- Concentration in bone, Tibia [7]: 0.012 μg 14C-alendronate/g bone and 0.007 μg 14C-alendronate/g bone and 0.031 μg 14C-alendronate/g bone
- Recovery from Treated Skin, % of Dose (necropsy Day 4, Mean): 0.35%
- Recovery from Treated Skin, % of Dose (necropsy Day 4, individual animals): 0.35% (2×) and 0.30% and 0.44% and 0.33%
- Recovery from Treated Skin, % of Dose (necropsy Day 8, Mean): 0.28%
